For orientation: vapor or sublimation pressure means the pressure of vapour in equilibrium with the condensed phase.

± gives the expanded uncertainty stated by the source.

The conditions of this data set: 298 K; Liquid; Gas chromatography.
Turning to `Cc1ccccc1OP(=O)(Oc1ccccc1C)Oc1ccccc1C` [tri-2-tolyl phosphate], the “vapor or sublimation pressure” value is recorded as 5.1e-08 ± 2.6e-08 kPa.
Next, `CC(C)c1ccccc1OP(=O)(Oc1ccccc1C(C)C)Oc1ccccc1C(C)C` [tris(2-(1-methylethyl)-phenol) phosphate]: 6e-09 ± 9e-09 kPa; `Cc1ccc(OP(=O)(Oc2ccc(C)cc2)Oc2ccc(C)cc2)cc1` [phosphoric acid, tri-p-cresyl ester]: 1.1e-08 ± 1.2e-08 kPa.
Consider `O=P(OC(CCl)CCl)(OC(CCl)CCl)OC(CCl)CCl` [tris(1,3-dichloro-2-propanol) phosphate], for which the “vapor or sublimation pressure” value is 4.1e-07 ± 2.8e-07 kPa.
The result for `O=P(Oc1ccccc1)(Oc1ccccc1)Oc1ccccc1` [triphenyl phosphate] reads 2.7e-07 ± 2e-07 kPa; that for `CCCCOCCOP(=O)(OCCOCCCC)OCCOCCCC` [tris(2-butoxyethyl) phosphate], 4.9e-08 ± 3.8e-08 kPa.
As to `CCCCC(CC)COP(=O)(OCC(CC)CCCC)OCC(CC)CCCC` (stereo unspecified) [tris(2-ethylhexyl) phosphate], the “vapor or sublimation pressure” value came to 2.1e-08 ± 1.8e-08 kPa.
Next, `CCCCC(CC)COP(=O)(Oc1ccccc1)Oc1ccccc1` (stereo unspecified) [2-ethylhexyl diphenyl phosphate]: 8.9e-08 ± 6.3e-08 kPa.
The result for `CC(CCl)OP(=O)(OC(C)CCl)OC(C)CCl` (stereo unspecified) [tris(1-chloro-2-propyl) phosphate] reads 3.5e-05 ± 1.7e-05 kPa; that for `O=P(OCCCl)(OCCCl)OCCCl` [tris(2-chloroethyl) phosphate], 4.8e-05 ± 2.2e-05 kPa.
Next, `Cc1cccc(OP(=O)(Oc2cccc(C)c2)Oc2cccc(C)c2)c1` [tri-m-tolyl phosphate]: 2.1e-08 ± 1.8e-08 kPa.

The values are drawn from the NIST ThermoML archive (doi:10.1021/je401026a).
